Source: patent US20230067929A1, “HETEROCYCLIC DERIVATIVES, PHARMACEUTICAL COMPOSITIONS AND THEIR USE IN THE TREATMENT, AMELIORATION OR PREVENTION OF CANCER” (Tolremo Therapeutics AG, priority 2018, published 2023)

Test system: A375 cells
Experiment: A375 cell immunofluorescence assay (with 1 μM S1152 and 0.5 μM S1008), EC50
Type: cell-based
Conditions: 1 μM S1152 + 0.5 μM S1008, one day, ratio FL2/FL3 staining (sc-365823 antibody)
Description: One thousand four hundred A375 cells were seeded in each well of a 384 well microplate. One day later they were treated with 1 μM S1152 (Selleckchem) in dimethyl sulfoxide, 0.5 μM S1008 (Selleckchem) and dose ranges of invention compounds for one day in Dulbecco's Modified Eagle's Medium supplemented with 10% fetal calf serum and 2 mM (2S)-2-amino-4-carbamoylbutanoic acid. Wells were incubated with 4% polyoxymethylene (Sigma Aldrich 158127) at ambient temperature. After ten minutes, polyoxymethylene was replaced with phosphate-buffered saline. After one minute phosphate-buffered saline was replaced with 0.2% polyethylene glycol octylphenyl ether in phosphate-buffered saline. After ten minutes at ambient temperature 0.2% polyethylene glycol octylphenyl ether in phosphate-buffered saline was replaced with 1% aminoethanoic acid in phosphate-buffered saline. […] After one hour at 37° C., the solution was replaced with phosphate-buffered saline twice. Phosphate-buffered saline was replaced with 2 μg/ml A-11029 (Invitrogen) in 0.05% polyoxyethylene (20) sorbitan monolaurate in phosphate-buffered saline. […] After one hour at ambient temperature in the dark, signal in wells was measured with a Acumen Cellista. 3,8-Diamino-5-[3-(diethylmethylammonio)propyl]-6-phenylphenanthridinium diiodide-positive objects were defined in FL3 (565-600 nm) with a perimeter between 50-800 μm and a total intensity of 10000-1000000 FLU. Signal in FL2 (500-530 nm) was measured in defined objects. A normalized ratio of total ln FL2 over total ln FL3 staining was log transformed. A non-linear regression (variable slope, 4 parameters) was used to calculate EC50 values using GraphPad Prism (Version 7.0d).

EC50, < 1 µM:
CC(=O)N1C[C@H](c2nc(Nc3cncc(C)c3)cc(-c3cncnc3)n2)CC[C@@H]1C
CC(=O)N1CCC[C@@H](c2nc(Nc3cccc(F)c3)cc(-c3cccnc3)n2)C1
COc1cncc(-c2cc(Nc3cccc(Cl)c3)nc([C@@H]3CCCN(C(C)=O)C3)n2)c1

EC50, 1 to 10 µM:
CCC(=O)N1CCCC(c2nc(-c3cccnc3)cc(N(C)c3cccc(F)c3)n2)C1 (stereo not shown)
COc1cncc(-c2cc(N(C)c3cccc(C)c3)nc(C3CCCN(C(C)=O)C3)n2)c1 (stereo not shown)
CNC(=O)N1CCCC(c2nc(Nc3cccc(F)c3)cc(-c3cccnc3)n2)C1 (stereo not shown)
CCC(=O)N1CCC[C@@H](c2nc(Nc3cccc(F)c3)cc(-c3cccnc3)n2)C1
COc1cncc(-c2cc(Nc3cccc(Cl)c3)nc([C@H]3CCCN(C(C)=O)C3)n2)c1
CC(=O)N1CCCC(c2nc(Nc3cccc(F)c3)nc(-c3ccccc3)n2)C1 (stereo not shown)
CC(=O)N1CCCC(c2cc(-c3cccnc3)cc(Nc3cccc(F)c3)n2)C1 (stereo not shown)
CC(=O)N1CCCC(c2cc(Nc3cccc(F)c3)cc(-c3cccnc3)n2)C1 (stereo not shown)
COc1csc(-c2cc(Nc3cccc(F)c3)cc(C3CCCN(C(C)=O)C3)n2)c1 (stereo not shown)
COc1cncc(-c2cc(Nc3cccc(F)c3)cc(C3CCCN(C(C)=O)C3)n2)c1 (stereo not shown)
CC(=O)N1CC(c2cc(Nc3cccc(F)c3)cc(-c3cccnc3)n2)=CCC1C (stereo not shown)
CC(=O)N1CCCC(c2cc(Nc3cccc(F)c3)cc(-c3c(C)noc3C)n2)C1 (stereo not shown)
CC(=O)N1CCCC(c2cc(Nc3cccc(F)c3)cc(-c3cncnc3)n2)C1 (stereo not shown)

EC50, > 10 µM:
CCC(=O)N1CCCC(c2nc(C)cc(Nc3cccc(F)c3)n2)C1 (stereo not shown)
CCC(=O)N1CCCC(c2nc(Nc3cccc(F)c3)cc(C3=CCOCC3)n2)C1 (stereo not shown)
CCC(=O)N1CCCC(c2nc(Nc3cccc(F)c3)cc(-c3cc[nH]n3)n2)C1 (stereo not shown)
CCC(=O)N1CCCC(c2nc(Nc3cccc(F)c3)cc(C3=CCCCC3)n2)C1 (stereo not shown)
CCC(=O)N1CCCC(c2nc(NC)cc(-c3cccnc3)n2)C1 (stereo not shown)
CCC(=O)N1CCCC(c2nc(Nc3cccc(F)c3)cc(C3CCOCC3)n2)C1 (stereo not shown)
CCC(=O)N1CCCC(c2nc(Nc3cccc(F)c3)cc(C3CCCCC3)n2)C1 (stereo not shown)
CCC(=O)N1CCCC(c2nc(Nc3cccc(F)c3)cc(C3CCCC3)n2)C1 (stereo not shown)
CCC(=O)N1CCCC(c2nc(-c3cccnc3)cc(N(c3cccc(F)c3)C(C)C)n2)C1 (stereo not shown)
CCC(=O)N1CCCC(c2nc(Cl)cc(Oc3cccc(F)c3)n2)C1 (stereo not shown)
CCC(=O)N1CCCC(c2nc(Oc3cccc(F)c3)cc(-c3cccnc3)n2)C1 (stereo not shown)
CCC(=O)N1CCCC(c2nc(Cc3cccc(F)c3)cc(-c3cccnc3)n2)C1 (stereo not shown)
COc1cncc(-c2cc(Cc3cccc(F)c3)nc(C3CCCN(C(C)=O)C3)n2)c1 (stereo not shown)
CCC(=O)N1CCCC(c2nc(Nc3cccc(F)c3)cc(-c3ncccn3)n2)C1 (stereo not shown)
CCC(=O)N1CCCC(c2nc(Nc3cccc(F)c3)cc(-c3cscn3)n2)C1 (stereo not shown)
CC(=O)N1CCCC(c2nc(Nc3cccc(F)c3)cc(-c3ncco3)n2)C1 (stereo not shown)
CC(=O)N1CCCC(c2nc(Nc3cccc(F)c3)cc(-c3ncc(C)o3)n2)C1 (stereo not shown)
CC(=O)N1CCOC(c2nc(Nc3cccc(F)c3)cc(-c3cccnc3)n2)C1 (stereo not shown)
CN1CCOC(c2nc(Nc3cccc(F)c3)cc(-c3cccnc3)n2)C1 (stereo not shown)
CS(=O)(=O)N1CCCC(c2nc(Nc3cccc(F)c3)cc(-c3cccnc3)n2)C1 (stereo not shown)
O=S(=O)(N1CCCC(c2nc(Nc3cccc(F)c3)cc(-c3cccnc3)n2)C1)C(F)(F)F (stereo not shown)
CC(=O)N1CCC[C@H](c2nc(Nc3cccc(F)c3)cc(-c3cccnc3)n2)C1
CCC(=O)N1CCC[C@H](c2nc(Nc3cccc(F)c3)cc(-c3cccnc3)n2)C1
Fc1cccc(Nc2cc(-c3cccnc3)nc(C3CCCN(CC(F)(F)F)C3)n2)c1 (stereo not shown)
